What was measured:
FLAG-UCHL1 = target: T1, FLAG-UCHL1 (Homo sapiens, UniProt P09936); test: HTRF in-cell UCHL1 activity assay with HA-Ub-VME in Cal51 cells; format: cell-based; details: Cal51 cells stably expressing FLAG-UCHL1, 1 h, HA-Ub-VME 100 nM
T1 construct: expressed in transfected cells
T1 sequence (P09936 1-223): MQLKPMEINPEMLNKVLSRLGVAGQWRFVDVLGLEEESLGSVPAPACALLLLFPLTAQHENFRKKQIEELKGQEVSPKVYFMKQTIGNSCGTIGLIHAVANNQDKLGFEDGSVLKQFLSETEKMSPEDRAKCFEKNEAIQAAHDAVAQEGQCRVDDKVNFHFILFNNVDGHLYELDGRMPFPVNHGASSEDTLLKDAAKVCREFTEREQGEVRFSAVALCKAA

USP19 = target: T2, USP19 (Homo sapiens, UniProt O94966); test: Biochemical DUB selectivity profiling assay: USP19; details: Ub-Lys-TAMRA 50 nM, buffer A; read-out: Biochemical IC50 range, USP19
T2 sequence (O94966 1-1318): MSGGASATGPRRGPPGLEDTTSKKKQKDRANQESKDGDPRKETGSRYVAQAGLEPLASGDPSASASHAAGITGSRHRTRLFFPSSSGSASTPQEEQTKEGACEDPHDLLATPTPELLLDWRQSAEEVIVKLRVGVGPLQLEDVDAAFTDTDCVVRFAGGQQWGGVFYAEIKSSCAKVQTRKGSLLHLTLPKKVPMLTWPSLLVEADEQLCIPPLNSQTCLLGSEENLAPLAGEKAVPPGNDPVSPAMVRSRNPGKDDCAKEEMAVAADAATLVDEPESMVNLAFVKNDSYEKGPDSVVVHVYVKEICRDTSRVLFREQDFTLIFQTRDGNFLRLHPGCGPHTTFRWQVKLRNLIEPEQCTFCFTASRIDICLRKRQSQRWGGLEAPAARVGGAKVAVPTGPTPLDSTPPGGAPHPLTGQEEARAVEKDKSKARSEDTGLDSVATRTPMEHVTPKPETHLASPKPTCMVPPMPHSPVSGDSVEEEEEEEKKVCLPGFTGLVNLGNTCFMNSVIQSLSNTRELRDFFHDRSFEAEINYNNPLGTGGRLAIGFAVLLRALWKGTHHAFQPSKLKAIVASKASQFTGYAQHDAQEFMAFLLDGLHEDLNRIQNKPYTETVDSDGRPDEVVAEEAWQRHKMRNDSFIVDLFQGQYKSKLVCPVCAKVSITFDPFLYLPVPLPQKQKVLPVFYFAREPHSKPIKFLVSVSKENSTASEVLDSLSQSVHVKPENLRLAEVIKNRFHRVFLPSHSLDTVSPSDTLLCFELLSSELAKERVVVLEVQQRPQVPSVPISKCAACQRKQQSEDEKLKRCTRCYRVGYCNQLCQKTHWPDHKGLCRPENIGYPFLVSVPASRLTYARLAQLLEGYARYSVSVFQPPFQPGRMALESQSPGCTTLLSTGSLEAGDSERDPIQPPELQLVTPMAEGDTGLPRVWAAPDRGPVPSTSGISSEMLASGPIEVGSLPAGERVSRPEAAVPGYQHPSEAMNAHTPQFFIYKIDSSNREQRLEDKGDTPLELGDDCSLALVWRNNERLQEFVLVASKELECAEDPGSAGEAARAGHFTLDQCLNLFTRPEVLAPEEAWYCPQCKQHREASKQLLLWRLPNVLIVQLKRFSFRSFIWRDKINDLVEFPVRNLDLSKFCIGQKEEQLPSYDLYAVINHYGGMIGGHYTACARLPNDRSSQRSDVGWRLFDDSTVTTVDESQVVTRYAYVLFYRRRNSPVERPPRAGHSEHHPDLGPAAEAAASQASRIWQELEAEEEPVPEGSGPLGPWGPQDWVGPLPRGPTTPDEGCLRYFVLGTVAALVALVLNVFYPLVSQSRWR
Protocol: (§1) DUB Assay Substrate Substrate
(§2) Buffer Concentration (nM) […]
(§3) Sepharose® 4B resin (GE Healthcare).
(§4) 10 kDa molecular weight cut-off (MWCO)).
(§5) Fractions containing protein
(§6) Protein concentration was […]
(§7) reaction volume of 21 μL. […]
(§8) compound (final concentration 5 nM).
(§9) IC50 values were determined
(§10) Biochemical DUB selectivity profiling assays […]
(§11) in 40 µL total reaction volume.

USP35 = target: T3, USP35 (Homo sapiens, UniProt Q9P2H5); test: Biochemical DUB selectivity profiling assay: USP35; details: Ub-Lys-TAMRA 50 nM, buffer B; read-out: Biochemical IC50 range, USP35
T3 sequence (Q9P2H5 1-1018): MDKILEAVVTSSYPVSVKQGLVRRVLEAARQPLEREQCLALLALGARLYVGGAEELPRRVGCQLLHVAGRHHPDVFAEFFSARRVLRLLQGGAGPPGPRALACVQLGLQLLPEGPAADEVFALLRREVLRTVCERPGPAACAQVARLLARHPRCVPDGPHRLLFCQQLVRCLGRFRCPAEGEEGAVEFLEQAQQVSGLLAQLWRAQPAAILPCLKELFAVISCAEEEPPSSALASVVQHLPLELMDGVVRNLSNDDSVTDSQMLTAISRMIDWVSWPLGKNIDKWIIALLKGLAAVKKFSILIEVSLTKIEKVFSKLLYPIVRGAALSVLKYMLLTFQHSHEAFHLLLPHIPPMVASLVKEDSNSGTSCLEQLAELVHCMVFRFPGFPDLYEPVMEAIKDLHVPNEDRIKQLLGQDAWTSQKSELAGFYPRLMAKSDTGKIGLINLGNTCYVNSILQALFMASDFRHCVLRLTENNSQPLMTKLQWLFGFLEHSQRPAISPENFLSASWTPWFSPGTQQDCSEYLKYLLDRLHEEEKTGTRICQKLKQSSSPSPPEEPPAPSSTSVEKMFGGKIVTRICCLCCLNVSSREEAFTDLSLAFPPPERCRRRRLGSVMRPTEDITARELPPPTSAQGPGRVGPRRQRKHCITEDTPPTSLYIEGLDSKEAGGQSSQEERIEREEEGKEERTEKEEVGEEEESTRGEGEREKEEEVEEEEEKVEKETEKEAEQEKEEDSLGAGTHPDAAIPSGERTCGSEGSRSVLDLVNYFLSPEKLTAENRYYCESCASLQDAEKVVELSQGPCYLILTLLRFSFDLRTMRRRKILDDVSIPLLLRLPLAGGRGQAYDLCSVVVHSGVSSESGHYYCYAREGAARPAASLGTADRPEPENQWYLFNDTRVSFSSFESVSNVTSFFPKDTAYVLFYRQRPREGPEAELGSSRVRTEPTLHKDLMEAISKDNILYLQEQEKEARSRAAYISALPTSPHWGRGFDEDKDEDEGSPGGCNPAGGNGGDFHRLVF
Protocol: as §1, §2, §3, §4, §5, §6, §7, §8, §9, §10, §11

IC50 (FLAG-UCHL1) | IC50 (USP19) | IC50 (USP35) | Structure (SMILES)
0.82 µM | > 10 µM | > 10 µM | N#CN1CCC[C@H]1C(=O)N1CCc2c(-c3c[nH]c4ncccc34)cccc21 [Compound 1]
0.11 µM | > 10 µM | > 10 µM | C#Cc1cnc2[nH]cc(-c3cccc4c3CCN4C(=O)[C@@H]3CCCN3C#N)c2c1 [Compound 2]
23 µM | > 10 µM | > 10 µM | N#CN1CCC[C@@H]1C(=O)N1CCc2c(-c3c[nH]c4ncccc34)cccc21 [Compound 3]

Structure (SMILES) | IC50 (FLAG-UCHL1) | IC50 (USP19) | IC50 (USP35)
CC(=O)O/N=C1\C(=O)N(Cc2cc(Cl)ccc2Cl)c2ccc(Cl)cc21 [LDN-57444, reference compound] | – | > 10 µM | > 10 µM

Reference: PMC7366380, “Discovery of a Potent and Selective Covalent Inhibitor and Activity-Based Probe for the Deubiquitylating Enzyme UCHL1, with Antifibrotic Activity” (Journal of the American Chemical Society, 2020)
